The record followed here is patent publication US7276337B2, “Compositions and methods for visual ribonuclease detection assays” (Integrated DNA Technologies, Inc., priority 2000, dated 2007).

One data set deals with T1, Ribonuclease T1 (Aspergillus oryzae, UniProt P00651).
T1 sequence (P00651 27-130): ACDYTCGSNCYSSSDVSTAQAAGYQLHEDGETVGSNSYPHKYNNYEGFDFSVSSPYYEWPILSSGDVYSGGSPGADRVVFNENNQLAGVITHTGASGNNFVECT
Kind of data set: Visual detection ribonuclease assay, cleavage of Substrate ODN by RNase T1. The format is biochemical. Also noted: key to Sensitivity of Substrate ODN to Ribonuclease T1, relative signal intensity: +++ = maximum intensity; ++ = moderate intensity; + = faint but above background; − = negative (identical to background). As to conditions: visual inspection, UV excitation, Substrate 500 nM, 37° C. 60 minutes. The protocol: (§1) Nuclease assays were conducted using the method of the invention with both visual and fluorometric detection methods. Substrates were individually mixed in 1× Assay Buffer at a concentration of 50 nM (50 pmoles oligonucleotide in 1 ml volume) for fluorometric detection or at a concentration of 500 nM (50 pmoles of oligonucleotide in 100 ul volume) for visual detection. Test nucleases were added to respective Assay Mixes beginning at 1 ul stock reagent and proceeding with a 1:10 serial dilution until undetectable. Reaction mixes were incubated at 37° C. for 60 minutes. Fluorometric detection was performed as outlined in Example 2. Visual detection was performed as outlined in Example 1.
Table 7: Sensitivity of different Substrate ODNs to Ribonuclease T1. A series of Substrate ODNs were synthesized and tested for sensitivity to RNase T1 degradation. Stock enzyme was serial diluted to achieve final concentrations of 0.001 units/ml, 0.0001 units/ml, and 0.00001 units/ml as indicated. Reactions were examined for fluorescence emission by visual inspection using an ultraviolet (UV) light source for excitation. Results were scored as +++, ++, +, or − based on relative signal intensity.
(§2) It is commonly accepted that fluorometry provides for high sensitivity. To be useful, the visual method must also offer high sensitivity. Assays were conducted using the method of the invention with visual detection. Substrate SEQ ID NO:30 was mixed in 1× Assay Buffer at a concentration of 500 nM (50 pmoles ODN in 100 ul volume) in thin-walled, UV transparent tubes. […] Dilutions of stock RNase A, RNase 1, and RNase T1 were made in water. Undiluted and diluted nuclease (1 ul) was added to respective 100 ul Assay Mixes resulting in final dilution factors of 10^−2, 10^−3, 10^−4, 10^−5, 10^−6, and 10^−7. Assays were incubated at room temperature for 10 minutes and visually examined for fluorescence emission with UV excitation. […] The experiment took about 30 minutes to perform, including 15 minutes to set-up serial dilutions, 10 minutes incubation, and 5 minutes to visualize and photograph. Thus the method of the invention allows for a rapid, simple, and convenient visual assay for the presence of ribonuclease activity.

The next data set deals with T2, Ribonuclease A (Bos taurus, UniProt P61823).
T2 sequence (P61823 27-150): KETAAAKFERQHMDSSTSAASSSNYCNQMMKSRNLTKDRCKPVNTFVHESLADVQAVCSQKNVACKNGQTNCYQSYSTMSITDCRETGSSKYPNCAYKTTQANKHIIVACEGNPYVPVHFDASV
Nature of the data set: Visual detection ribonuclease assay, cleavage of Substrate ODN by RNase A. Format: biochemical, mammalian. The conditions noted are these: visual inspection, UV excitation, Substrate 500 nM, 37° C. 60 minutes. Further details: key to Sensitivity of Substrate ODN to Ribonuclease A, relative signal intensity: +++ = maximum intensity; ++ = moderate intensity; + = faint but above background; − = negative (identical to background). As for the experimental part:
Nuclease assays were conducted using the methods of the invention. SEQ ID NO:2 and SEQ ID NO:30 oligonucleotides were individually mixed in 1× Assay Buffer at a concentration of 500 nM (50 pmoles ODN in 100 ul volume) in thin-walled, UV transparent microtubes. RNase A (1 ul, diluted to 0;1 ug/ul) was added to the respective Assay Mixes. […] Assays were set up directly in microtubes as follows:
Assay Mixes were incubated at room temperature for 10 minutes. Assays were visually examined for fluorescence emission directly in the assay tubes without further manipulation. Tubes were suspended above an ultraviolet light source, visually inspected, and photographed using a digital camera. […] The “positive” and “control” reactions appeared markedly different and were easily distinguished. […] The “positive” and “control” reactions were not markedly different to visual inspection.
as §1
Table 6: Sensitivity of different Substrate ODNs to Ribonuclease A. A series of Substrate ODNs were synthesized and tested for sensitivity to RNase A degradation. Stock enzyme was serial diluted to achieve final concentrations of 1 ng/ml, 100 pg/ml, and 10 pg/ml as indicated. Reactions were examined for fluorescence emission by visual inspection using an ultraviolet (UV) light source for excitation. Results were scored as +++, ++, +, or − based on relative signal intensity.
as §2

The test system of data set [1] is Substrate oligonucleotide SEQ ID NO:30. Nature of the data set: RNase testing of commercially obtained reagents, visual detection. The format is biochemical. Also noted: key: +++ = maximum intensity; ++ = moderate intensity; + = faint but above background; − = negative (identical to background). As to conditions: reagent diluted 1:10 with Assay Buffer, 50 pmoles Substrate SEQ ID NO:30, 60 minutes at 37° C., UV. As for the experimental part: Enzymes were obtained from New England Biolabs (NEB) or Ambion as indicated. Test sample (10 ul) was mixed with 1× buffer (90 ul) for a final volume of 100 ul with 50 pmoles of Substrate SEQ ID NO:30 in 0.5 ml RNase-free microtubes. Assay Mixes were incubated 60 minutes at 37° C. and visually examined under UV excitation for fluorescence emission. After scoring for results, 1 ul (1 ug) of RNase A was added to each tube. The Assay was incubated an additional 5 minutes at 37° C. and re-scored. The addition of RNase A represents a control for the absence of an Assay inhibitor and validates negative results. The “plus RNase A” control was omitted whenever the primary assay was already positive.
Table 9: RNase testing of commercially available reagents. A series of commercially available reagents were diluted 1:10 with Assay Buffer to a final volume of 100 ul. An RNase detection assay was performed using the method of the invention with Substrate oligonucleotide SEQ ID NO:30. Reactions were examined for fluorescence emission by visual inspection using an ultraviolet (UV) light source for excitation. Results were scored as +++, ++, +, or − based on relative signal intensity. As a control, RNase A (1 ug) was added to negative reactions and the Assay was re-scored. ND=not done.

Take “5′ Fluorescein-AcguA-Dabcyl 3′ (NACGUAN; 5' fluorescein and 3' Dabcyl labels, nucleotide chemistry not given here) [SEQ ID NO:15]”: the results for the “Sensitivity of Substrate ODN to Ribonuclease T1, relative signal intensity” value with Ribonuclease T1 (RNase T1 10^−3 units/ml), with Ribonuclease T1 (RNase T1 10^−4 units/ml) and in the data set with Ribonuclease T1 (RNase T1 10^−5 units/ml) were “+++”, “+” and “−”, respectively. Also, the “Sensitivity of Substrate ODN to Ribonuclease A, relative signal intensity” value is recorded as “−” with Ribonuclease A (RNase A 10 pg/ml), “+” in the data set with Ribonuclease A (RNase A 100 pg/ml) and “+++” in the data set with Ribonuclease A (RNase A 1 ng/ml).

With “5′ Fluorescein-AcuaA-Dabcyl 3′ (NACUAAN; 5' fluorescein and 3' Dabcyl labels, nucleotide chemistry not given here) [SEQ ID NO:17]”, the “Sensitivity of Substrate ODN to Ribonuclease T1, relative signal intensity” value with Ribonuclease T1 (RNase T1 10^−3 units/ml), with Ribonuclease T1 (RNase T1 10^−4 units/ml) and with Ribonuclease T1 (RNase T1 10^−5 units/ml) was “−” in each case. Also, the “Sensitivity of Substrate ODN to Ribonuclease A, relative signal intensity” value with Ribonuclease A (RNase A 10 pg/ml) is on record as “−”; with Ribonuclease A (RNase A 100 pg/ml), “+”; with Ribonuclease A (RNase A 1 ng/ml), “+++”.

Turning to “5′ Fluorescein-AgaAA-Dabcyl 3′ (NAGAAAN; 5' fluorescein and 3' Dabcyl labels, nucleotide chemistry not given here) [SEQ ID NO:9]”, the “Sensitivity of Substrate ODN to Ribonuclease T1, relative signal intensity” value in the data set with Ribonuclease T1 (RNase T1 10^−3 units/ml) is given as “+”; in the data set with Ribonuclease T1 (RNase T1 10^−4 units/ml) it was “+”; with Ribonuclease T1 (RNase T1 10^−5 units/ml) it was “−”. Further, the “Sensitivity of Substrate ODN to Ribonuclease A, relative signal intensity” value with Ribonuclease A (RNase A 10 pg/ml), with Ribonuclease A (RNase A 100 pg/ml) and in the data set with Ribonuclease A (RNase A 1 ng/ml) was “−” each time.

For the substance “5′ Fluorescein-AgcuAA-Dabcyl 3′ (NAGCUAAN; 5' fluorescein and 3' Dabcyl labels, nucleotide chemistry not given here) [SEQ ID NO:11]”, the “Sensitivity of Substrate ODN to Ribonuclease T1, relative signal intensity” value with Ribonuclease T1 (RNase T1 10^−3 units/ml) is recorded as “+”; with Ribonuclease T1 (RNase T1 10^−4 units/ml), “−”; in the data set with Ribonuclease T1 (RNase T1 10^−5 units/ml), “−”. Further, the “Sensitivity of Substrate ODN to Ribonuclease A, relative signal intensity” value with Ribonuclease A (RNase A 10 pg/ml) was “−”; in the data set with Ribonuclease A (RNase A 100 pg/ml) it was “−”; with Ribonuclease A (RNase A 1 ng/ml), “++”.

On to “5′ Fluorescein-AgcuaA-Dabcyl 3′ (NAGCUAAN; 5' fluorescein and 3' Dabcyl labels, nucleotide chemistry not given here) [SEQ ID NO:22]”, for which the “Sensitivity of Substrate ODN to Ribonuclease T1, relative signal intensity” value was “+++” with Ribonuclease T1 (RNase T1 10^−3 units/ml), “+” with Ribonuclease T1 (RNase T1 10^−4 units/ml) and “−” with Ribonuclease T1 (RNase T1 10^−5 units/ml). Moreover, the “Sensitivity of Substrate ODN to Ribonuclease A, relative signal intensity” value is given as “−” in the data set with Ribonuclease A (RNase A 10 pg/ml), “++” with Ribonuclease A (RNase A 100 pg/ml) and “+++” in the data set with Ribonuclease A (RNase A 1 ng/ml).

As to “5′ Fluorescein-AguAA-Dabcyl 3′ (NAGUAAN; 5' fluorescein and 3' Dabcyl labels, nucleotide chemistry not given here) [SEQ ID NO:7]”, the “Sensitivity of Substrate ODN to Ribonuclease T1, relative signal intensity” value with Ribonuclease T1 (RNase T1 10^−3 units/ml) was “+”; with Ribonuclease T1 (RNase T1 10^−4 units/ml), “−”; with Ribonuclease T1 (RNase T1 10^−5 units/ml) it was “−”. Moreover, the “Sensitivity of Substrate ODN to Ribonuclease A, relative signal intensity” value with Ribonuclease A (RNase A 10 pg/ml) is “−”; with Ribonuclease A (RNase A 100 pg/ml), “−”; with Ribonuclease A (RNase A 1 ng/ml), “+”.

“5′ Fluorescein-AgucAA-Dabcyl 3′ (NAGUCAAN; 5' fluorescein and 3' Dabcyl labels, nucleotide chemistry not given here) [SEQ ID NO:10]”: the “Sensitivity of Substrate ODN to Ribonuclease T1, relative signal intensity” value in the data set with Ribonuclease T1 (RNase T1 10^−3 units/ml) was “+”; in the data set with Ribonuclease T1 (RNase T1 10^−4 units/ml) it was “−”; in the data set with Ribonuclease T1 (RNase T1 10^−5 units/ml) it was “−”. In addition, the “Sensitivity of Substrate ODN to Ribonuclease A, relative signal intensity” value with Ribonuclease A (RNase A 10 pg/ml) is reported as “−”; with Ribonuclease A (RNase A 100 pg/ml), “−”; in the data set with Ribonuclease A (RNase A 1 ng/ml) it was “++”.

For “5′ Fluorescein-AgucaA-Dabcyl 3′ (NAGUCAAN; 5' fluorescein and 3' Dabcyl labels, nucleotide chemistry not given here) [SEQ ID NO:23]”, the “Sensitivity of Substrate ODN to Ribonuclease T1, relative signal intensity” value with Ribonuclease T1 (RNase T1 10^−3 units/ml) is “++”; with Ribonuclease T1 (RNase T1 10^−4 units/ml), “−”; with Ribonuclease T1 (RNase T1 10^−5 units/ml) it was “−”. The “Sensitivity of Substrate ODN to Ribonuclease A, relative signal intensity” value is “−” with Ribonuclease A (RNase A 10 pg/ml), “+” with Ribonuclease A (RNase A 100 pg/ml) and “+++” in the data set with Ribonuclease A (RNase A 1 ng/ml).

For the substance “5′ Fluorescein-AuagA-Dabcyl 3′ (NAUAGAN; 5' fluorescein and 3' Dabcyl labels, nucleotide chemistry not given here) [SEQ ID NO:16]”, the “Sensitivity of Substrate ODN to Ribonuclease T1, relative signal intensity” value with Ribonuclease T1 (RNase T1 10^−3 units/ml) is reported as “+++”; with Ribonuclease T1 (RNase T1 10^−4 units/ml), “+++”; in the data set with Ribonuclease T1 (RNase T1 10^−5 units/ml), “−”. For the same substance, the “Sensitivity of Substrate ODN to Ribonuclease A, relative signal intensity” value with Ribonuclease A (RNase A 10 pg/ml) was “−”; with Ribonuclease A (RNase A 100 pg/ml), “++”; in the data set with Ribonuclease A (RNase A 1 ng/ml), “+++”.

Turning to “Hind III: commercial enzyme from New England Biolabs, sold as RNase-free”, the “Assay Results (RNase activity in reagent, relative signal intensity)” value in data set [1] is on record as “−”.

On to “Super Taq: commercial enzyme reagent from Ambion, sold as RNase-free”, for which the “Assay Results (RNase activity in reagent, relative signal intensity)” value in data set [1] is “−”.
